# Assay results: patent US20200237875A1, “FORMULATIONS AND METHODS FOR TREATMENT OF FIBROMYALGIA AND RELATED MYOFASCIAL PAIN DISORDERS” (SYNLEV PHARMACEUTICALS CORPORATION, priority 2019, published 2020)
# Entries after “also recorded” stand apart in the source; their conditions may differ.
# Columns and labels:
# fibromyalgia = conditions: cited from earlier work
# [1] = in vivo; cited from earlier work
# [2] = tested on: patients with fibromyalgia and insulin resistance; experiment: Retrospective review of Numeric Pain Rating Scale (NPRS) pain scores before and after treatment; assay type: in vivo, human
# Method: Data was obtained from the review of various patient populations as followed: First, the pain scores of two populations of patients were reviewed. Group 1 consisted of 16 patients with fibromyalgia and insulin resistance (HbA1c values of 5.7 or higher) who were prescribed metformin 500 mg twice a day for insulin resistance. In this group, metformin had been added to the “standard treatment” for fibromyalgia. The “standard treatment” (ST) consisted of norepinephrine reuptake inhibitors (amitriptyline, duloxetine or milnacipran) and/or membrane-stabilizing agents (gabapentin or pregabalin). […]
# Second, the pain scores of another group of patients with insulin resistance and fibromyalgia, Group 2, who had been treated with […], a class of drugs that reduce insulin resistance by a mechanism different from metformin were analyzed. […]
# Because peripheral neuropathies (including small fiber neuropathy) that are associated with insulin resistance may start at very early stages of pre-diabetes, there is a growing trend among experts to begin early pharmacological interventions to correct this abnormality, particularly when insulin resistance is associated with neuropathy or other risk factors. […] Pain scores were routinely recorded by the Numeric Pain Rating Scale (NPRS), at each clinical encounter. […]
Compound,NNT (numbers needed to treat) (fibromyalgia),individuals intolerant to metformin [1],"change in pain scores (NPRS), in words ([2]; Group 2, 10 patients: 5 metformin alone, 5 PPD-4 inhibitor alone, no ST)","retention of the analgesic effect ([2]; long-term, refers to a Table 3 that is not given)"
CN(C)CCC=C1c2ccccc2CCc2ccccc21 [amitriptyline],4,,,
CNCC[C@H](Oc1cccc2ccccc12)c1cccs1 [duloxetine],6,,,
CN(C)C(=N)N=C(N)N [metformin],,at least 20%,comparable reductions in pain scores; also recorded: this improvement was only partial,long-term retention of the analgesic effect
